Active and inactive are the calls of the source. No cut-off for these calls is given here.
Experiments:
MDA-MB-231 [1] = test: Induction of apoptosis in human MDA-MB-231 cells assessed as increase in cleaved caspase 9 expression at 1 to 4 uM incubated for 24 hrs by Western blotting analysis; type: functional, cell-based; details: dose 1-4 µM
MDA-MB-231 [2] = test: Inhibition of colony formation in human MDA-MB-231 cells assessed as reduction in colony formation treated for 10 days medium refreshed every two days by crustal violet based assay; type: functional, cell-based; details: time 10.0 day
MDA-MB-231 [3] = test: Induction of apoptosis in human MDA-MB-231 cells assessed as increase in apoptotic rate incubated for 24 hrs in presence of SB-431542 TGF-beta signaling inhibitor by Annexin V-FITC/PI double staining by flow cytometry; type: functional, cell-based
[4] = Cytotoxicity against human HFF cells assessed as cell viability by MTT assay; type: toxicity, cell-based
MDA-MB-231 [5] = test: Induction of cell cycle arrest in human MDA-MB-231 cells assessed as accumulation of cells at G0/G1 phase at 1 uM measured after 24 hrs by PI staining by flow cytometry; type: functional
4T1 [6] = test: Induction of cell cycle arrest in mouse 4T1 cells assessed as accumulation of cells at G0/G1 phase measured after 24 hrs in presence of SB-431542 TGF-beta signaling inhibitor by PI staining by flow cytometry; type: functional, cell-based
[7] = Cytotoxicity against human BEAS-2B cells assessed as cell viability by MTT assay; type: toxicity, cell-based
4T1 [8] = test: Cytotoxicity against mouse 4T1 cells assessed as cell viability by MTT assay; type: functional, cell-based
MDA-MB-231 [9] = test: Induction of cell cycle arrest in human MDA-MB-231 cells assessed as accumulation of cells at G0/G1 phase measured after 24 hrs in presence of SB-431542 TGF-beta signaling inhibitor by PI staining by flow cytometry; type: functional, cell-based
4T1 [10] = test: Induction of mitochondrial membrane potential loss in mouse 4T1 cells assessed as increase in fluorescence intensity by JC-1 monomer assay; type: functional, cell-based; details: dose 2-4 µM
MDA-MB-231 [11] = test: Anti-tumor activity against human MDA-MB-231 cells assessed as change in expression of genes involved in TGF-beta1/Smad signaling pathway measured after 24 hrs incubation by RNA-Seq analysis; type: functional, cell-based
MDA-MB-231 [12] = test: Anti-tumor activity against human MDA-MB-231 cells assessed as change in TGF-beta1/Smad signaling pathway by measuring increase in p-Smad3 level after 24 hrs incubation by Western blot analysis; type: functional, cell-based; details: dose 1-4 µM
MDA-MB-231 [13] = test: Induction of apoptosis in human MDA-MB-231 cells assessed as increase in cleaved caspase 3 expression at 1 to 4 uM incubated for 24 hrs by Western blotting analysis; type: functional, cell-based; details: dose 1-4 µM
MDA-MB-231 [14] = test: Reduction in PCNA protein expression in human MDA-MB-231 cells by Western blotting analysis; type: functional, cell-based; details: dose 1-4 µM
MDA-MB-231 [15] = test: Antimigratory activity against human MDA-MB-231 cells assessed as decrease in migration of tumor cells into scratching region at 8 to 10 uM incubated for 12 to 24 hrs by Wound healing assay; type: functional, cell-based; details: dose 8-10 µM, time 12-24 hrs
4T1 [16] = test: Induction of cell cycle arrest in mouse 4T1 cells assessed as accumulation of cells at G0/G1 phase at 1.5 uM measured after 24 hrs by PI staining by flow cytometry; type: functional
MDA-MB-231 [17] = test: Induction of apoptosis in human MDA-MB-231 cells assessed as increase in apoptotic rate at 4 uM incubated for 24 hrs by Annexin V-FITC/PI double staining by flow cytometry; type: functional
MCF7 = test: Cytotoxicity against human MCF7 cells assessed as cell viability by MTT assay; type: functional, cell-based
MDA-MB-231 [18] = test: Induction of DNA damage in human MDA-MB-231 cells assessed as increase in gamma-H2AX focal expression at 2 to 4 uM by immunofluorescence staining assay; type: functional, cell-based; details: dose 2-4 µM
MDA-MB-231 [19] = test: Anti-metastatic activity in human MDA-MB-231 cells assessed as decrease in vimentin protein level at 1 to 4 uM by Western blotting analysis; type: functional, cell-based; details: dose 1-4 µM
MDA-MB-231 [20] = test: Induction of apoptosis in human MDA-MB-231 cells assessed as decrease in Bcl-2 expression at 1 to 4 uM incubated for 24 hrs by Western blotting analysis; type: functional, cell-based; details: dose 1-4 µM
4T1 [21] = test: Induction of ROS production in mouse 4T1 cells at 1 to 4 uM incubated for 24 hrs by flow cytometry; type: functional, cell-based; details: dose 1-4 µM
4T1 [22] = test: Anti-tumor activity against mouse 4T1 cells assessed as decrease in cell viability at 8 uM incubated for 24 hrs in presence of SB-431542 TGF-beta signaling inhibitor by MTT assay; type: functional, cell-based
4T1 [23] = test: Induction of mitochondrial membrane potential loss in mouse 4T1 cells assessed as decrease in fluorescence intensity by JC-1 aggregate assay; type: functional, cell-based; details: dose 2-4 µM
MDA-MB-231 [24] = test: Induction of cell cycle arrest in human MDA-MB-231 cells assessed as reduction in p-Rb expression at 1 to 4 uM measured after 24 hrs by immunoblotting assay; type: functional, cell-based; details: dose 1-4 µM
MDA-MB-231 [25] = test: Cytotoxicity against human MDA-MB-231 cells assessed as cell viability by MTT assay; type: functional, cell-based
MDA-MB-231 [26] = test: Anti-tumor activity against human MDA-MB-231 cells assessed as change in TGF-beta1/Smad signaling pathway by measuring increase in TGF-beta1 level after 24 hrs incubation by Western blot analysis; type: functional, cell-based; details: dose 1-4 µM
4T1 [27] = test: Anti-invasive activity in mouse 4T1 cells assessed as reduction in cell invasion incubated for 24 hrs by Transwell assay; type: functional, cell-based; details: dose 3-6 µM
MDA-MB-231 [28] = test: Induction of mitochondrial membrane potential loss in human MDA-MB-231 cells assessed as decrease in fluorescence intensity by JC-1 aggregate assay; type: functional, cell-based; details: dose 2-4 µM
MDA-MB-231 [29] = test: Induction of apoptosis in human MDA-MB-231 cells assessed as increase in cleaved PARP expression at 1 to 4 uM incubated for 24 hrs by Western blotting analysis; type: functional, cell-based; details: dose 1-4 µM

With `O=C1C[C@@H](c2ccccc2)Oc2cc(O)c([C@H](/C=C/C[C@@H](O)CCc3ccccc3)c3ccccc3)c(O)c21` the Activity (MDA-MB-231 [1]) was “Active”, the inhibition (MDA-MB-231 [2]) was “Dose-Dependent Effect” and the Activity (MDA-MB-231 [3]) was “inactive”. The IC50 [4] was 5.91 µM, the Activity (MDA-MB-231 [5]) was 49.59% and the Activity (4T1 [6]) was “inactive”. The IC50 [7] was 5.27 µM, the IC50 (4T1 [8]) was 2.82 µM and the Activity (MDA-MB-231 [9]) was “inactive”. The Activity (4T1 [10]) was “Dose-Dependent Effect”, the Activity (MDA-MB-231 [11]) was “Active” and the Activity (MDA-MB-231 [12]) was “Dose-Dependent Effect”. The Activity (MDA-MB-231 [13]) was “Active”, the inhibition (MDA-MB-231 [14]) was “Dose-Dependent Effect” and the Activity (MDA-MB-231 [15]) was “Active”. It also gave an Activity (4T1 [16]) of 55.78%, an Activity (MDA-MB-231 [17]) of 46.4% and an IC50 (MCF7) of 8.64 µM. For the same compound, the Activity (MDA-MB-231 [18]) was “Active”, the Activity (MDA-MB-231 [19]) was “Active” and the Activity (MDA-MB-231 [20]) was “Active”. The Activity (4T1 [21]) was “Active”, the Activity (4T1 [22]) was “inactive” and the Activity (4T1 [23]) was “Dose-Dependent Effect”. The Activity (MDA-MB-231 [24]) was “Active”, the IC50 (MDA-MB-231 [25]) was 4.33 µM and the Activity (MDA-MB-231 [26]) was “Dose-Dependent Effect”. The Activity (4T1 [27]) was “Dose-Dependent Effect”, the Activity (MDA-MB-231 [28]) was “Dose-Dependent Effect” and the Activity (MDA-MB-231 [29]) was “Active”.
